Measured values published in PubChem BioAssay AID1996.
In brackets after ≈: the same amount, converted by molar mass.

Conditions: buffer; pH 7.4; 200.0 µM

S=C(NC1CCCCC1)N1CCn2cccc2C1c1ccncc1 (stereo not given) and COc1ccc(CNC(=S)NC2CCCCC2)cc1 are within 1.5-fold of each other in solubility kinetic: 36.1 µg/mL (≈ 106 µM) for the first, 38.4 µg/mL (≈ 138 µM) for the second.

CC1CN(C(=O)COC(=O)c2ccc(C#N)cc2)CC(C)O1 (stereo not given) and CCOc1ccc(C(=O)OCC(=O)N2CCCC2)cc1 cannot be ordered by solubility kinetic: > 45.3 µg/mL for the first, > 41.6 µg/mL for the second.

First: CC[C@H](C)[C@H](NC(N)=O)C(=O)Nc1ccc2c(c1)OCO2
Second: C/C=C/COC(=O)C1=C(C)NC(=O)NC1c1ccc2c(c1)OCO2 (stereo not given)
The solubility kinetic of the first is 2.5-fold higher: 38.6 µg/mL (≈ 132 µM) for the first, 15.5 µg/mL (≈ 46.9 µM) for the second.

COc1ccccc1C(=O)NCCC(=O)NC1=NCCS1 and O=C(CNC(=O)c1ccccc1F)OC1CCOC1=O (stereo not given) cannot be ordered by solubility kinetic: > 46.1 µg/mL for the first, > 42.2 µg/mL for the second.

Compared with O=C(CN1CCCCCC1)Nc1ccc([N+](=O)[O-])cc1Br, Cc1ccc2c(c1)N(CC(=O)N1CCCCCC1)C(=O)C(C)O2 (stereo not given) is higher in solubility kinetic: 3 µg/mL (≈ 8.42 µM) for the first, > 47.5 µg/mL for the second.

Cc1c(Cl)cccc1NC(=S)Nc1ccc(S(=O)(=O)Nc2ncccn2)cc1 and COC(=O)c1scc(C)c1NS(=O)(=O)c1ccc(NC(C)=O)cc1 cannot be ordered by solubility kinetic: 64.9 µg/mL (≈ 150 µM) for the first, > 55.3 µg/mL for the second.

Going from COc1ccccc1OCC(=O)O/N=C(\N)c1ccccn1 to COc1ccc(NC(=O)Nc2ccccn2)cc1OC, the solubility kinetic falls from > 45.2 µg/mL to 16.7 µg/mL (≈ 61.1 µM).

O=C(NCCO)c1cc([N+](=O)[O-])cc2c1C=Cc1ccccc1O2 and Cc1cc(CNC(=O)c2cccnc2Cl)c2ccccc2n1 are within 1.5-fold of each other in solubility kinetic: 35.3 µg/mL (≈ 108 µM) for the first, 39.1 µg/mL (≈ 125 µM) for the second.

First: O=C(Nc1ncccn1)c1ccc([N+](=O)[O-])cc1[N+](=O)[O-]
Second: O=C(Nc1cccnc1Cl)c1cc2ccccc2o1
The solubility kinetic of the first is 5.3-fold higher: 38.7 µg/mL (≈ 134 µM) for the first, 7.3 µg/mL (≈ 26.8 µM) for the second.

First: O=S(=O)(CCSc1ccc(C(F)(F)F)cn1)c1ccc(Cl)cc1
Second: NS(=O)(=O)c1ccc(CNC(=O)c2cnccn2)cc1
The solubility kinetic of the first is lower: < 0.8 µg/mL for the first, > 43.8 µg/mL for the second.

CCOc1ccc2[nH]c3c(NCCN(C)C)ncnc3c2c1 and CCOc1ccc(NC(=O)CN2C(=O)CSC(C)C2=O)cc1 (stereo not given) cannot be ordered by solubility kinetic: > 44.9 µg/mL for the first, > 48.4 µg/mL for the second.

O=C(Nc1ccc(NC(=O)C2CC2)cc1)c1ccco1 and O=C(CCNC(=O)c1ccco1)Nc1cccc(C(F)(F)F)c1 cannot be ordered by solubility kinetic: > 40.5 µg/mL for the first, > 48.9 µg/mL for the second.

Going from O=C1N(Cc2ccccc2)c2ccc(Cl)cc2C12OCCO2 to O=[N+]([O-])c1ccccc1S(=O)(=O)N1CCN(Cc2ccccc2)CC1, the solubility kinetic rises from 9 µg/mL (≈ 28.5 µM) to 24.4 µg/mL (≈ 67.5 µM) (2.7-fold).

Compared with COc1cccc(C2Nc3ccccc3C(=O)N2Cc2ccccc2)c1 (stereo not given), O=C(CCCN1C(=O)c2ccccc2C1=O)Nc1ccccc1 is higher in solubility kinetic: 17.3 µg/mL (≈ 50.2 µM) for the first, > 46.3 µg/mL for the second.

Cc1ccccc1-n1c(=O)n(Cc2ccco2)c(=O)c2[nH]cnc21 and CCN1C(=O)C(O)(CC(=O)c2c(C)coc2C)c2ccccc21 (stereo not given) cannot be ordered by solubility kinetic: > 48.3 µg/mL for the first, > 47 µg/mL for the second.

Compared with COC(=O)Nc1ccc(S(=O)(=O)N2CCCc3cccc(O)c32)cc1, O=C(Cn1cc([N+](=O)[O-])ccc1=O)N1CCCc2ccccc21 is higher in solubility kinetic: 2.1 µg/mL (≈ 5.79 µM) for the first, > 47 µg/mL for the second.

Cc1ccccc1/C=C/C(=O)N1CCOCC1 and Cc1cccc(C(=S)N2CCOCC2)n1 cannot be ordered by solubility kinetic: > 34.7 µg/mL for the first, > 33.3 µg/mL for the second.

Going from N#C/C(=C\c1ccncc1)C(=O)Nc1ccc(C(=O)O)cc1 to CC(=O)Nc1ccc(C(=O)/C=C/c2ccc[nH]2)cc1, the solubility kinetic falls from > 44 µg/mL to 2.9 µg/mL (≈ 11.4 µM).

Compared with O=C1Nc2ccc(Br)cc2C(c2ccccc2)=NC1O (stereo not given), Cc1cc(NC(=O)c2cc(-c3ccncc3)nc3ccccc23)ccc1Br is lower in solubility kinetic: > 49.7 µg/mL for the first, 1.2 µg/mL (≈ 2.87 µM) for the second.

Compared with O=C1c2cccc3cccc(c23)C(=O)N1c1ccccn1, C=CCN1C(=O)c2ccc(C(=O)Nc3ccccn3)cc2C1=O is 5-fold lower in solubility kinetic: 40.4 µg/mL (≈ 147 µM) for the first, 8 µg/mL (≈ 26 µM) for the second.

Compared with O=C(Nc1ccc(N2CCCCC2)c(S(=O)(=O)Nc2ccccc2Cl)c1)c1cccnc1, O=C(CCl)Nc1cccc(S(=O)(=O)NC2=NCCCCC2)c1 is higher in solubility kinetic: 1.5 µg/mL (≈ 3.18 µM) for the first, > 51.6 µg/mL for the second.

Going from O=C(Nc1cc2c3c(c1)CC(=O)N3CCC2)c1cccc(F)c1 to O=C(Nc1ccc2c(c1)OCCO2)c1cccc(Cl)c1, the solubility kinetic rises from 10.5 µg/mL (≈ 33.8 µM) to 36.9 µg/mL (≈ 127 µM) (3.5-fold).

Going from CC(C)C(NC(=O)c1ccccc1)C(=O)NCCc1ccccc1 (stereo not given) to CC(OC(=O)c1cc2ccccc2[nH]1)C(=O)N(C)c1ccccc1 (stereo not given), the solubility kinetic falls from 9.4 µg/mL (≈ 29 µM) to 3.8 µg/mL (≈ 11.8 µM) (2.5-fold).

First: c1csc(-c2noc(CN3CCc4sccc4C3)n2)c1
Second: Clc1cccc(C2CCN(Cc3nc(CC4CC4)no3)C2)c1 (stereo not given)
The solubility kinetic of the first is 2.2-fold higher: 27.3 µg/mL (≈ 90 µM) for the first, 12.3 µg/mL (≈ 38.7 µM) for the second.

Compared with COc1ccc(NC(=O)c2cc(-c3cccc(OC)c3)on2)cc1, COc1ccc(-c2c(C)nc(N)nc2-c2ccc(OC)cc2O)cc1 is higher in solubility kinetic: < 0.3 µg/mL for the first, 7.4 µg/mL (≈ 21.9 µM) for the second.

COc1cc(C(=O)N2CCCc3ccccc32)c([N+](=O)[O-])cc1OC and COc1cc(C(=O)OCC(=O)N2CCCC2=O)cc(OC)c1C cannot be ordered by solubility kinetic: > 51.4 µg/mL for the first, > 48.2 µg/mL for the second.

First: O=C(Nc1ccc(CN2CCOCC2)cc1)c1ccc(Br)cc1
Second: Cc1ccc(NC(=S)N2CCC(NC(=O)c3ccc(C)cc3)CC2)cc1
The solubility kinetic of the first is 3.7-fold lower: 0.6 µg/mL (≈ 1.6 µM) for the first, 2.2 µg/mL (≈ 5.99 µM) for the second.

CC1CCc2cccc3c(O)cc(=O)n1c23 (stereo not given) and Cc1c(O)ccc2c(CN3CCOCC3)cc(=O)oc12 cannot be ordered by solubility kinetic: > 32.3 µg/mL for the first, > 41.3 µg/mL for the second.

Cc1ccc2c(c1)N(CC(=O)N1CCCC(C)C1)C(=O)CO2 (stereo not given) and Cc1ccc(-c2cc(C(=O)N3CCOCC3)no2)cc1 cannot be ordered by solubility kinetic: 45.3 µg/mL (≈ 150 µM) for the first, > 40.8 µg/mL for the second.

O=C(CNC(=O)c1ccc(Br)o1)Nc1ccccc1 and S=C(NCC1COc2ccccc2O1)Nc1ccccc1 (stereo not given) are within 1.5-fold of each other in solubility kinetic: 6.7 µg/mL (≈ 20.7 µM) for the first, 6.5 µg/mL (≈ 21.6 µM) for the second.

CCOC(=O)c1ccc(NC(=O)CN2C(=O)CN(C(C)=O)C2=S)cc1 and Cc1ccc(C(=O)N/C(=C\c2ccc(C)o2)C(=O)O)cc1 cannot be ordered by solubility kinetic: 51.8 µg/mL (≈ 143 µM) for the first, > 42.8 µg/mL for the second.

Going from CCc1ccc(NS(=O)(=O)c2c(C)noc2C)cc1 to Cc1ccc(-c2csc(NC(=O)c3c(C)noc3C)n2)cc1, the solubility kinetic falls from > 42.1 µg/mL to 6.4 µg/mL (≈ 20.4 µM).

First: O=C1/C(=C/c2ccc(O)cc2)SC(=S)N1CC1CCCO1 (stereo not given)
Second: CC1Cc2cc(/C=C3/SC(=S)N(C)C3=O)ccc2O1 (stereo not given)
The solubility kinetic of the first is higher: 1.3 µg/mL (≈ 4.04 µM) for the first, < 0.6 µg/mL for the second.

Compared with O=C(O)c1ccc(S(=O)(=O)N2CCSCC2)cc1, COc1ccc(/C(N)=N/OC(=O)CC2CCCCC2)cc1 is 15-fold lower in solubility kinetic: 42.9 µg/mL (≈ 149 µM) for the first, 2.8 µg/mL (≈ 9.64 µM) for the second.

O=C1CC(c2ccccc2Cl)CC(O)=C1C=NCCCO (stereo not given) and CCOC(=O)C1(Cc2cccc(Cl)c2)CCCN(CCO)C1 (stereo not given) are within 1.5-fold of each other in solubility kinetic: 44.3 µg/mL (≈ 144 µM) for the first, 47.9 µg/mL (≈ 147 µM) for the second.

Compared with CN=c1sc(C(=O)Nc2ccccc2)c(C)n1C, O=C(c1ccccc1)c1nccn1-c1ccc(Cl)nn1 is higher in solubility kinetic: 35.3 µg/mL (≈ 135 µM) for the first, > 42.7 µg/mL for the second.

First: C=CCNC(=O)c1ccc(-c2nc3ccccc3nc2-c2ccccc2)cc1
Second: O=C(NCc1cccnc1)c1cccs1
The solubility kinetic of the first is lower: 11.7 µg/mL (≈ 32 µM) for the first, > 32.7 µg/mL for the second.

First: c1ccn2cc(-c3ccc4c(c3)OCCO4)nc2c1
Second: CCc1ccc(/C=C2\SC(N3CCOCC3)=NC2=O)cc1
The solubility kinetic of the first is higher: > 37.8 µg/mL for the first, 24.9 µg/mL (≈ 82.3 µM) for the second.

Going from CCNC(=O)N1CCN(C(=O)NCC)CC1 to CCn1c(=O)c2sccc2n(CC(=O)NC2CCCC2)c1=O, the solubility kinetic rises from 13.6 µg/mL (≈ 59.6 µM) to 45.4 µg/mL (≈ 141 µM) (3.3-fold).

First: CN(C(=O)CSc1nnc2n1CCCCC2)C1(C#N)CCCCC1
Second: CC(=O)c1cn(C2OC(CO)C3OC(C)(C)OC32)c(=O)n(C)c1=O (stereo not given)
The solubility kinetic of the first is higher: > 52.1 µg/mL for the first, 48.9 µg/mL (≈ 144 µM) for the second.

First: COc1cc(CC(=O)OCC(=O)NC(C)c2ccccc2)cc(OC)c1OC (stereo not given)
Second: Cc1ccc(NC(=S)NCc2ccc3c(c2)cc(C)n3C)c(C)c1
The solubility kinetic of the first is higher: > 58.1 µg/mL for the first, 0.6 µg/mL (≈ 1.78 µM) for the second.

First: CNc1nc2c(Cl)cc(Cl)cc2s1
Second: CN(C)/C=N/c1ncc(C(=O)c2ccc(Cl)cc2Cl)s1
The solubility kinetic of the first is lower: < 0.2 µg/mL for the first, 41.6 µg/mL (≈ 127 µM) for the second.

In the case of Cn1c(O)c(C=Nc2ccc(F)cc2)c(=O)[nH]c1=O, the solubility kinetic is reported as 11.9 µg/mL (≈ 45.2 µM).
